Earlier results, collected in patent publication EP4005587B1, “PHARMACEUTICAL COMPOSITION FOR TREATING LEVODOPA-INDUCED DYSKINESIA OR FOR SUPPRESSING PROGRESSION THEREOF” (Peptron, Inc., priority 2019, dated 2026).

Legend:
[1] = test system: MPTP mouse model for Parkinson's disease; conditions: given daily for 7 days after treatment
[2] = test system: lesioned rats
[3] = compared to GLP-1-Tf

For exendin-4, the neuro-protection [1] is listed as “not effective”, the “acute effects of L-DOPA” value ([2]; lesioned rats) is listed as “potentiated” and the 6-OHDA induced damage ([2]; rat, in vivo) is listed as “reduces 6-OHDA induced damage”. For the same substance, the LIDS ([2]; rat, in vivo) was “progressive reduction” and the rotarod performance [3] was “improve rotarod performance”.
